From US4223036A, “1-(1,3-Dioxolan-2-ylmethyl)-1H-1,2,4-triazoles” (Janssen Pharmaceutica N.V., priority 1979, dated 1980)
Where a name gives a salt, the structure may show the parent alone.

Tests used:
[1] = tested on: Candida albicans; assay: Activity against crop candidosis in turkeys (dose whereby crops of 50% of animals were completely negative); format: in vivo; settings: medicated feed for 13 consecutive days
Procedure: Experiment B: Activity of Compounds (I) Against Crop Candidosis in Turkeys
Turkeys of 14 days old were infected in the crop with 4.10^6 Candida albicans cells, grown on Sabouraud broth for 48 hours at 37° C. and diluted with saline. The volume of the inoculum was 1 ml. The drug under investigation were premixed in 500 mg of lacton and thereafter admixed in 1000 g of meal without any additives. The concentration of the drug under investigation in the meal was expressed in mg/kg.
The animals were given the medicated feed for 13 consecutive days starting on the day of infection. At the end of the experiment all animals were sacrificed. At autopsy the crops were removed, emptied and grinded in an ultra-turrax mixer in 15 ml of sterile saline. Colony counting was done on Sabouraud agar and the results given in the Tables I, II and III represent the ED50, i.e., the dose of the drug whereby the crops of 50% of the animals were completely negative for Candida albicans.

[2] = tested on: Candida albicans; assay: Activity against vaginal candidosis in rats (lowest oral dose active at the 14th day after infection); format: in vivo, Female Wistar rats; parameters: lowest effective oral dose (vaginal candidosis in rats): unit not given here; settings: oral once a day for two days, active at 14th day after infection; for lowest effective oral dose (vaginal candidosis in rats): Table I; for minimal effective dose: Candida albicans, 336 h
Procedure: Experiment A: Activity of Compounds (I) Against Vaginal Candidosis in Rats
Female Wistar rats of ±100 g body weight were used. They were ovariectomized and hysterectomized and after three weeks of recovery, 100 μg of oestradiol undecylate in sesame oil was given subcutaneously once a week for 3 consecutive weeks. The thus induced pseudooestrus was controlled by microscopic examination of vaginal smears. Food and water were left available ad libitum.
The rats were infected intravaginally with 8.10^5 cells of Candida albicans, grown on Sabouraud broth for 48 hours at 37° C. and diluted with saline. The date of infection varied from day +25 to day +32 after surgical intervention, depending on the appearance of signs of induced pseudo-oestrus.
The drugs under investigation were administered orally once a day for two days starting from the day of infection. For each experiment there were placebo treated controls. The results were assessed by taking vaginal smears with sterile swabs on several days after infection. The swabs were put into Sabouraud broth in petri-dishes and incubated for 48 hours a 37° C. If no growth of Candida albicans occured, i.e., when the animals were negative at the end of the experiment, this was due to drug administration because it never happened in placebo treated controls.
The Tables I, II and III below give the lowest oral dose of the drug under investigation which was found active at the 14th day after infection.

Structure (SMILES) | ED50 (crop candidosis in turkeys) ([1]; Table I) | lowest effective oral dose (vaginal candidosis in rats) [2] | other results
CCNc1ccc(OC[C@H]2CO[C@](Cn3ccnc3)(c3ccc(Cl)cc3Cl)O2)cc1 (relative stereo) [NHCH2CH3, cis-4-[2-(2,4-dichlorophenyl)-2-(1H-imidazol-1-ylmethyl)-1,3-dioxolan-4-ylmethoxy]-N-ethylbenzenamine] | 31 mg/kg of feed | 2.5 | –
S=C=Nc1ccc(OC[C@H]2CO[C@](Cn3ccnc3)(c3ccc(Cl)cc3Cl)O2)cc1 (relative stereo) [NCS, cis-1-[2-(2,4-dichlorophenyl)-4-(4-isothiocyanatophenoxymethyl)-1,3-dioxolan-2-ylmethyl]-1H-imidazole] | 125 mg/kg of feed | 5 | –
CCC(=O)Nc1ccc(OC[C@H]2CO[C@](Cn3ccnc3)(c3ccc(Cl)cc3Cl)O2)cc1 (relative stereo) [NHCOC2 H5, cis-N-{4-[2-(2,4-dichlorophenyl)-2-(1H-imidazol-1-ylmethyl)-1,3-dioxolan-4-ylmethoxy]phenyl}propanaide ethanedioate. 2-propanolate] | 31 mg/kg of feed | 10 | –
CCOC(=O)N1CCN(c2ccc(OC[C@H]3CO[C@](Cn4ccnc4)(c4ccc(Cl)cc4Cl)O3)cc2)CC1 (relative stereo) [drawing 39, cis-ethyl 4-{4-[2-(2,4-dichlorophenyl)-2-(1H-imidazol-1-ylmethyl)-1,3-dioxolan-4-ylmethoxy]phenyl}-1-piperazinecarboxylate dihydrochloride hemihydrate] | – | – | ED50 (crop candidosis in turkeys) ([1]; Table I, dihydrochloride hemihydrate): 31 mg/kg of feed; lowest effective oral dose (vaginal candidosis in rats) ([2]; dihydrochloride hemihydrate): 10
COC(=O)N1CCN(c2ccc(OC[C@H]3CO[C@](Cn4ccnc4)(c4ccc(Cl)cc4Cl)O3)cc2)CC1 (relative stereo) | 8 mg/kg of feed | 2.5 | –
CC(=O)Nc1ccc(OC[C@H]2CO[C@](Cn3ccnc3)(c3ccc(Cl)cc3Cl)O2)cc1 (relative stereo) [NHCOCH3, cis-N-{4-[2-(2,4-dichlorophenyl)-2-(1H-imidazol-1-ylmethyl)-1,3-dioxolan-4-ylmethoxy]phenyl}acetamide] | 31 mg/kg of feed | 5 | –
CCNC(=O)N1CCN(c2ccc(OC[C@H]3CO[C@](Cn4ccnc4)(c4ccc(Cl)cc4Cl)O3)cc2)CC1 (relative stereo) | 125 mg/kg of feed | 10 | –
CCCN1CCN(c2ccc(OC[C@H]3CO[C@](Cn4ccnc4)(c4ccc(Cl)cc4Cl)O3)cc2)CC1 (relative stereo) | 16 mg/kg of feed | 2.5 | –
CCN1CCN(c2ccc(OC[C@H]3CO[C@](Cn4ccnc4)(c4ccc(Cl)cc4Cl)O3)cc2)CC1 (relative stereo) [drawing 37] | 31 mg/kg of feed | 1.25 | –
CCOC(=O)Nc1ccc(OC[C@H]2CO[C@](Cn3ccnc3)(c3ccc(Cl)cc3Cl)O2)cc1 (relative stereo) [NHCOOC2 H5, cis-ethyl {4-[2-(2,4-dichlorophenyl)-2-(1H-imidazol-1-ylmethyl)-1,3-dioxolan-4-ylmethoxy]phenyl}carbamate] | 16 mg/kg of feed | 5 | –
COc1ccc(C(=O)Nc2ccc(OC[C@H]3CO[C@](Cn4ccnc4)(c4ccc(Cl)cc4Cl)O3)cc2)cc1 (relative stereo) | 16 mg/kg of feed | 40 | –
O=C(Nc1ccc(OC[C@H]2CO[C@](Cn3ccnc3)(c3ccc(Cl)cc3Cl)O2)cc1)c1ccc(F)cc1 (relative stereo) | 16 mg/kg of feed | 5 | –
CCC(C)N1CCN(c2ccc(OC[C@H]3CO[C@](Cn4cncn4)(c4ccc(Cl)cc4Cl)O3)cc2)CC1 (relative stereo) [CH(CH3)CH2CH3] | – | – | ED50 (crop candidosis in turkeys) ([1]; Table II): 63 mg/kg of feed; minimal effective dose ([2]; Table II): 2.5 mg/kg
Clc1ccc([C@@]2(Cn3ccnc3)OC[C@H](COc3ccc(N4CCN(Cc5ccccc5)CC4)cc3)O2)c(Cl)c1 (relative stereo) [drawing 50] | 16 mg/kg of feed | 1.25 | –
CC(=O)Nc1cccc(OC[C@H]2CO[C@](Cn3ccnc3)(c3ccc(Cl)cc3Cl)O2)c1 (relative stereo) [3 (NHCOCH3), cis-N-{3-[2-(2,4-dichlorophenyl)-2-(1H-imidazol-1-ylmethyl)-1,3-dioxolan-4-ylmethoxy]phenyl}acetamide nitrate] | – | – | ED50 (crop candidosis in turkeys) ([1]; Table III): 63 mg/kg of feed; minimal effective dose ([2]; Table III): 10 mg/kg
O=C(Nc1ccc(OC[C@H]2CO[C@](Cn3ccnc3)(c3ccc(Cl)cc3Cl)O2)cc1)C(Cl)Cl (relative stereo) [NHCOCH(Cl)2, cis-2,2-dichloro-N-{4-[2-(2,4-dichlorophenyl)-2-(1H-imidazol-1-ylmethyl)-1,3-dioxolan-4-ylmethoxy]phenyl}acetamide] | 125 mg/kg of feed | 10 | –
CNC(=O)N1CCN(c2ccc(OC[C@H]3CO[C@](Cn4ccnc4)(c4ccc(Cl)cc4Cl)O3)cc2)CC1 (relative stereo) | 16 mg/kg of feed | 2.5 | –
CNC(=S)Nc1ccc(OC[C@H]2CO[C@](Cn3ccnc3)(c3ccc(Cl)cc3Cl)O2)cc1 (relative stereo) [NHCSNHCH3, cis-N-{4-[2-(2,4-dichlorophenyl)-2-(1H-imidzol-1-yl-methyl)-1,3-dioxolan-4-ylmethoxy]-phenyl}-N'-methylthiourea] | 125 mg/kg of feed | 10 | –
CC(C)CN1CCN(c2ccc(OC[C@H]3CO[C@](Cn4cncn4)(c4ccc(Cl)cc4Cl)O3)cc2)CC1 (relative stereo) [CH2CH(CH3)2] | – | – | ED50 (crop candidosis in turkeys) ([1]; Table II): 31 mg/kg of feed; minimal effective dose ([2]; Table II): 2.5 mg/kg
O=CNc1ccc(OC[C@H]2CO[C@](Cn3ccnc3)(c3ccc(Cl)cc3Cl)O2)cc1 (relative stereo) [NHCHO, cis-N-{4-[2-(2,4-dichlorophenyl)-2-(1H-imidazol-1-yl-methyl)-1,3-dioxolan-4-ylmethoxy]phenyl}formamide] | 31 mg/kg of feed | 2.5 | –
Clc1ccc([C@@]2(Cn3ccnc3)OC[C@H](COc3ccc(N4CCOCC4)cc3)O2)c(Cl)c1 (relative stereo) | 16 mg/kg of feed | 2.5 | –
CNC(=O)Nc1ccc(OC[C@H]2CO[C@](Cn3ccnc3)(c3ccc(Cl)cc3Cl)O2)cc1 (relative stereo) [NHCONHCH3, cis-N-{4-[2-(2,4-dichlorophenyl)-2-(1H-imidazol-1-ylmethyl)-1,3-dioxolan-4-ylmethoxy]phenyl}-N'-methylurea] | 125 mg/kg of feed | 10 | –
CC(=O)N1CCN(c2ccc(OC[C@H]3CO[C@](Cn4cncn4)(c4ccc(Cl)cc4Cl)O3)cc2)CC1 (relative stereo) [COCH3, cis-1-acetyl-4-{4-[2-(2,4-dichlorophenyl)-2-(1H-1,2,4-triazol-1-ylmethyl)-1,3-dioxolan-4-yl-methoxy]phenyl}piperazine] | – | – | ED50 (crop candidosis in turkeys) ([1]; Table II): 8 mg/kg of feed; minimal effective dose ([2]; Table II): 1.25 mg/kg
COC(=O)Nc1ccc(OC[C@H]2CO[C@](Cn3ccnc3)(c3ccc(Cl)cc3Cl)O2)cc1 (relative stereo) [NHCOOCH3, cis-methyl {4-[2-(2,4-dichlorophenyl)-2-(1H-imidazol-1-ylmethyl-1,3-dioxolan-4-ylmethoxy]phenyl}-carbamate nitrate] | 31 mg/kg of feed | 5 | –
